{
  "source": "patent US10799522B2",
  "about": "“Compositions and methods relating to galectin detection” (Wayne State University, priority 2015, dated 2020)",
  "assay": "radiation dosimetry estimates for human patients",
  "settings": "adult male",
  "key": {"[1]": {"settings": "target organ Urinary Bladder Wall"}},
  "data": [
    {"smiles": "OCC1OC(SC2OC(CO)C(O)C(n3cc(-c4cccc([18F])c4)nn3)C2O)C(O)C(n2cc(-c3cccc(F)c3)nn2)C1O", "note": "[[^18F]FPTDG, 3-(3-[^18F]fluorophenyltriazolyl)-3-deoxy-3′-(3-fluorophenyltriazolyl)-3′-deoxy-1-thio-β-D-digalactopyranoside]", "values": [
      {"measurement": "Estimated organ dose, ED Cont.", "setting": "target organ Ovaries", "result": "1.20 mSv per 370 MBq dose or 10 mCi"},
      {"measurement": "Estimated organ dose, EDE Cont.", "setting": "target organ Ovaries", "result": "1.50 mSv per 370 MBq dose or 10 mCi"},
      {"measurement": "Estimated organ dose, Photon", "setting": "target organ Ovaries", "result": "4.32 mSv per 370 MBq dose or 10 mCi"},
      {"measurement": "Estimated organ dose, Total", "setting": "target organ Ovaries", "result": "6.02 mSv per 370 MBq dose or 10 mCi"},
      {"measurement": "Estimated organ dose, Alpha", "setting": "target organ Pancreas", "result": "0 mSv per 370 MBq dose or 10 mCi"},
      {"measurement": "Estimated organ dose, Beta", "setting": "target organ Pancreas", "result": "1.70 mSv per 370 MBq dose or 10 mCi"},
      {"measurement": "Estimated organ dose, ED Cont.", "setting": "target organ Pancreas", "result": "0.03 mSv per 370 MBq dose or 10 mCi"},
      {"measurement": "Estimated organ dose, EDE Cont.", "setting": "target organ Pancreas", "result": "0.35 mSv per 370 MBq dose or 10 mCi"},
      {"measurement": "Estimated organ dose, Photon", "setting": "target organ Pancreas", "result": "4.2 mSv per 370 MBq dose or 10 mCi"},
      {"measurement": "Estimated organ dose, Total", "setting": "target organ Pancreas", "result": "5.90 mSv per 370 MBq dose or 10 mCi"},
      {"measurement": "Estimated organ dose, Alpha", "setting": "target organ Red Marrow", "result": "0 mSv per 370 MBq dose or 10 mCi"},
      {"measurement": "Estimated organ dose, Beta", "setting": "target organ Red Marrow", "result": "1.21 mSv per 370 MBq dose or 10 mCi"},
      {"measurement": "Estimated organ dose, ED Cont.", "setting": "target organ Red Marrow", "result": "0.51 mSv per 370 MBq dose or 10 mCi"},
      {"measurement": "Estimated organ dose, EDE Cont.", "setting": "target organ Red Marrow", "result": "0.51 mSv per 370 MBq dose or 10 mCi"},
      {"measurement": "Estimated organ dose, Photon", "setting": "target organ Red Marrow", "result": "3.03 mSv per 370 MBq dose or 10 mCi"},
      {"measurement": "Estimated organ dose, Total", "setting": "target organ Red Marrow", "result": "4.24 mSv per 370 MBq dose or 10 mCi"},
      {"measurement": "Estimated organ dose, Alpha", "setting": "target organ Skin", "result": "0 mSv per 370 MBq dose or 10 mCi"},
      {"measurement": "Estimated organ dose, Beta", "setting": "target organ Skin", "result": "1.70 mSv per 370 MBq dose or 10 mCi"},
      {"measurement": "Estimated organ dose, ED Cont.", "setting": "target organ Skin", "result": "0.03 mSv per 370 MBq dose or 10 mCi"},
      {"measurement": "Estimated organ dose, EDE Cont.", "setting": "target organ Skin", "result": "0.00 mSv per 370 MBq dose or 10 mCi"},
      {"measurement": "Estimated organ dose, Photon", "setting": "target organ Skin", "result": "1.76 mSv per 370 MBq dose or 10 mCi"},
      {"measurement": "Estimated organ dose, Total", "setting": "target organ Skin", "result": "3.46 mSv per 370 MBq dose or 10 mCi"},
      {"measurement": "Estimated organ dose, Alpha", "setting": "target organ Small Intestine", "result": "0 mSv per 370 MBq dose or 10 mCi"},
      {"measurement": "Estimated organ dose, Beta", "setting": "target organ Small Intestine", "result": "4.15 mSv per 370 MBq dose or 10 mCi"},
      {"measurement": "Estimated organ dose, ED Cont.", "setting": "target organ Small Intestine", "result": "0.04 mSv per 370 MBq dose or 10 mCi"},
      {"measurement": "Estimated organ dose, EDE Cont.", "setting": "target organ Small Intestine", "result": "0.50 mSv per 370 MBq dose or 10 mCi"},
      {"measurement": "Estimated organ dose, Photon", "setting": "target organ Small Intestine", "result": "4.21 mSv per 370 MBq dose or 10 mCi"},
      {"measurement": "Estimated organ dose, Total", "setting": "target organ Small Intestine", "result": "8.36 mSv per 370 MBq dose or 10 mCi"},
      {"measurement": "Estimated organ dose, Alpha", "setting": "target organ Spleen", "result": "0 mSv per 370 MBq dose or 10 mCi"},
      {"measurement": "Estimated organ dose, Beta", "setting": "target organ Spleen", "result": "1.70 mSv per 370 MBq dose or 10 mCi"},
      {"measurement": "Estimated organ dose, ED Cont.", "setting": "target organ Spleen", "result": "0.03 mSv per 370 MBq dose or 10 mCi"},
      {"measurement": "Estimated organ dose, EDE Cont.", "setting": "target organ Spleen", "result": "0.00 mSv per 370 MBq dose or 10 mCi"},
      {"measurement": "Estimated organ dose, Photon", "setting": "target organ Spleen", "result": "3.52 mSv per 370 MBq dose or 10 mCi"},
      {"measurement": "Estimated organ dose, Total", "setting": "target organ Spleen", "result": "5.22 mSv per 370 MBq dose or 10 mCi"},
      {"measurement": "Estimated organ dose, Alpha", "setting": "target organ Stomach Wall", "result": "0 mSv per 370 MBq dose or 10 mCi"},
      {"measurement": "Estimated organ dose, Beta", "setting": "target organ Stomach Wall", "result": "9.17 mSv per 370 MBq dose or 10 mCi"},
      {"measurement": "Estimated organ dose, ED Cont.", "setting": "target organ Stomach Wall", "result": "1.79 mSv per 370 MBq dose or 10 mCi"},
      {"measurement": "Estimated organ dose, EDE Cont.", "setting": "target organ Stomach Wall", "result": "0.90 mSv per 370 MBq dose or 10 mCi"},
      {"measurement": "Estimated organ dose, Photon", "setting": "target organ Stomach Wall", "result": "5.78 mSv per 370 MBq dose or 10 mCi"},
      {"measurement": "Estimated organ dose, Total", "setting": "target organ Stomach Wall", "result": "14.90 mSv per 370 MBq dose or 10 mCi"},
      {"measurement": "Estimated organ dose, Alpha", "setting": "target organ Testes", "result": "0 mSv per 370 MBq dose or 10 mCi"},
      {"measurement": "Estimated organ dose, Beta", "setting": "target organ Testes", "result": "1.70 mSv per 370 MBq dose or 10 mCi"},
      {"measurement": "Estimated organ dose, ED Cont.", "setting": "target organ Testes", "result": "0.00 mSv per 370 MBq dose or 10 mCi"},
      {"measurement": "Estimated organ dose, EDE Cont.", "setting": "target organ Testes", "result": "0.00 mSv per 370 MBq dose or 10 mCi"},
      {"measurement": "Estimated organ dose, Photon", "setting": "target organ Testes", "result": "2.67 mSv per 370 MBq dose or 10 mCi"},
      {"measurement": "Estimated organ dose, Total", "setting": "target organ Testes", "result": "4.37 mSv per 370 MBq dose or 10 mCi"},
      {"measurement": "Estimated organ dose, Alpha", "setting": "target organ Thymus", "result": "0 mSv per 370 MBq dose or 10 mCi"},
      {"measurement": "Estimated organ dose, Beta", "setting": "target organ Thymus", "result": "1.70 mSv per 370 MBq dose or 10 mCi"},
      {"measurement": "Estimated organ dose, ED Cont.", "setting": "target organ Thymus", "result": "0.02 mSv per 370 MBq dose or 10 mCi"},
      {"measurement": "Estimated organ dose, EDE Cont.", "setting": "target organ Thymus", "result": "0.00 mSv per 370 MBq dose or 10 mCi"},
      {"measurement": "Estimated organ dose, Photon", "setting": "target organ Thymus", "result": "2.63 mSv per 370 MBq dose or 10 mCi"},
      {"measurement": "Estimated organ dose, Total", "setting": "target organ Thymus", "result": "4.33 mSv per 370 MBq dose or 10 mCi"},
      {"measurement": "Estimated organ dose, Alpha", "setting": "target organ Thyroid", "result": "0 mSv per 370 MBq dose or 10 mCi"},
      {"measurement": "Estimated organ dose, Beta", "setting": "target organ Thyroid", "result": "1.70 mSv per 370 MBq dose or 10 mCi"},
      {"measurement": "Estimated organ dose, ED Cont.", "setting": "target organ Thyroid", "result": "0.22 mSv per 370 MBq dose or 10 mCi"},
      {"measurement": "Estimated organ dose, EDE Cont.", "setting": "target organ Thyroid", "result": "0.13 mSv per 370 MBq dose or 10 mCi"},
      {"measurement": "Estimated organ dose, Photon", "setting": "target organ Thyroid", "result": "2.78 mSv per 370 MBq dose or 10 mCi"},
      {"measurement": "Estimated organ dose, Total", "setting": "target organ Thyroid", "result": "4.48 mSv per 370 MBq dose or 10 mCi"},
      {"measurement": "Estimated organ dose, Alpha", "setting": "target organ ULI Wall", "result": "0 mSv per 370 MBq dose or 10 mCi"},
      {"measurement": "Estimated organ dose, Beta", "setting": "target organ ULI Wall", "result": "1.70 mSv per 370 MBq dose or 10 mCi"},
      {"measurement": "Estimated organ dose, ED Cont.", "setting": "target organ ULI Wall", "result": "0.03 mSv per 370 MBq dose or 10 mCi"},
      {"measurement": "Estimated organ dose, EDE Cont.", "setting": "target organ ULI Wall", "result": "0.00 mSv per 370 MBq dose or 10 mCi"},
      {"measurement": "Estimated organ dose, Photon", "setting": "target organ ULI Wall", "result": "4.02 mSv per 370 MBq dose or 10 mCi"},
      {"measurement": "Estimated organ dose, Total", "setting": "target organ ULI Wall", "result": "5.71 mSv per 370 MBq dose or 10 mCi"},
      {"measurement": "Estimated organ dose, Alpha", "setting": "[1]", "result": "0 mSv per 370 MBq dose or 10 mCi"},
      {"measurement": "Estimated organ dose, Beta", "setting": "[1]", "result": "1.70 mSv per 370 MBq dose or 10 mCi"},
      {"measurement": "Estimated organ dose, ED Cont.", "setting": "[1]", "result": "0.27 mSv per 370 MBq dose or 10 mCi"},
      {"measurement": "Estimated organ dose, EDE Cont.", "setting": "[1]", "result": "0.00 mSv per 370 MBq dose or 10 mCi"},
      {"measurement": "Estimated organ dose, Photon", "setting": "[1]", "result": "3.63 mSv per 370 MBq dose or 10 mCi"},
      {"measurement": "Estimated organ dose, Total", "setting": "[1]", "result": "5.33 mSv per 370 MBq dose or 10 mCi"},
      {"measurement": "Estimated organ dose, Alpha", "setting": "target organ Uterus", "result": "0 mSv per 370 MBq dose or 10 mCi"},
      {"measurement": "Estimated organ dose, Beta", "setting": "target organ Uterus", "result": "1.70 mSv per 370 MBq dose or 10 mCi"},
      {"measurement": "Estimated organ dose, ED Cont.", "setting": "target organ Uterus", "result": "0.03 mSv per 370 MBq dose or 10 mCi"},
      {"measurement": "Estimated organ dose, EDE Cont.", "setting": "target organ Uterus", "result": "0.35 mSv per 370 MBq dose or 10 mCi"},
      {"measurement": "Estimated organ dose, Photon", "setting": "target organ Uterus", "result": "4.06 mSv per 370 MBq dose or 10 mCi"},
      {"measurement": "Estimated organ dose, Total", "setting": "target organ Uterus", "result": "5.76 mSv per 370 MBq dose or 10 mCi"}
    ]}
  ]
}
